The values that follow come from ChEMBL document CHEMBL1155914 (Bioorg Med Chem, 2008).

Assay [1] concerns the target T1, Acetylcholinesterase (Electrophorus electricus, UniProt O42275).
Description: Inhibition of Electrophorus electricus AChE by spectrophotometry
The target in a further assay is Cholinesterase (Homo sapiens, UniProt P06276).
Assay [2] deals with SH-SY5Y. Kind of assay: cells. As to conditions: Homo sapiens, read-out: INH.
Description: Inhibition of potassium chloride-induced cytosolic calcium levels in human SH-SY5Y cells at 0.3 uM by fluorescence method relative to control
Assay [3] deals with Acetylcholinesterase (Homo sapiens, UniProt P22303).
Description: Inhibition of human erythrocyte AChE by Ellman's method
Assay [4] deals with T1, Acetylcholinesterase. The source holds these as a separate data set.
Description: Inhibition of Electrophorus electricus AChE by Ellman's method
The test system of assay [5] is SH-SY5Y. Briefly: Antioxidant activity in human SH-SY5Y cells assessed as decrease in H2O2-induced reactive oxygen species generation at 0.3 uM by fluorescence method. The class given is functional. Details: scale not given: the % may be the effect or the level left.

Sequence of Cholinesterase (P06276 whole entry): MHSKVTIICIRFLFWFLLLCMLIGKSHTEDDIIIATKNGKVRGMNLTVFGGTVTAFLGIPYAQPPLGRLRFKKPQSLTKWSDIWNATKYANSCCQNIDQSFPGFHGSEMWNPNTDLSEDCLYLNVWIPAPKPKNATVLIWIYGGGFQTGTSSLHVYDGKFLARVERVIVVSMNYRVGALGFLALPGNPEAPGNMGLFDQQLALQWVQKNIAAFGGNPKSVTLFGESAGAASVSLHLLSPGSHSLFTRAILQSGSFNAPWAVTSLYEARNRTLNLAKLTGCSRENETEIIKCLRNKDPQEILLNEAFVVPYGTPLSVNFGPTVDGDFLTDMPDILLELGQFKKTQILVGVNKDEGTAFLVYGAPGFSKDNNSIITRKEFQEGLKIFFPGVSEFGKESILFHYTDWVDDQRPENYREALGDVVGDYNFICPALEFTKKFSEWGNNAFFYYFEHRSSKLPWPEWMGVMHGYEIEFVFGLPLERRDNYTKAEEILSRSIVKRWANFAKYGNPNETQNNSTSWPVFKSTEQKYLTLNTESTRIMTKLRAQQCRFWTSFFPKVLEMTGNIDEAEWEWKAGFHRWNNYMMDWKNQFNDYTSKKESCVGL
Sequence of Acetylcholinesterase (Homo sapiens, UniProt P22303) (P22303 whole entry): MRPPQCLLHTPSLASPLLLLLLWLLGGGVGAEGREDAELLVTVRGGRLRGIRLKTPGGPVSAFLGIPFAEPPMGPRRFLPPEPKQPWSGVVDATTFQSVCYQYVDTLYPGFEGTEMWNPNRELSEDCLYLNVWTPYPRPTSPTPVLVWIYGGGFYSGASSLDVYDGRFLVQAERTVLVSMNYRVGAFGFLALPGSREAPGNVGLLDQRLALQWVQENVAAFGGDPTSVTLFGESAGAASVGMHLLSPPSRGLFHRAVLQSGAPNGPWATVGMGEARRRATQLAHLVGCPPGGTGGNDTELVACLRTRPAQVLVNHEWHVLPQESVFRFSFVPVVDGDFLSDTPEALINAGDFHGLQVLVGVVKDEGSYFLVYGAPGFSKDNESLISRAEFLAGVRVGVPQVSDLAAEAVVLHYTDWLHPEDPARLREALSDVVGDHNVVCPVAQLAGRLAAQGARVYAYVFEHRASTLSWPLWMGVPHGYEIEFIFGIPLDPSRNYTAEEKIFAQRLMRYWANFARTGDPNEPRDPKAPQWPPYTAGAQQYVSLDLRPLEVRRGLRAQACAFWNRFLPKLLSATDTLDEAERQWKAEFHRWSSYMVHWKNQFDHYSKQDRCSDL
T1 sequence (O42275 whole entry): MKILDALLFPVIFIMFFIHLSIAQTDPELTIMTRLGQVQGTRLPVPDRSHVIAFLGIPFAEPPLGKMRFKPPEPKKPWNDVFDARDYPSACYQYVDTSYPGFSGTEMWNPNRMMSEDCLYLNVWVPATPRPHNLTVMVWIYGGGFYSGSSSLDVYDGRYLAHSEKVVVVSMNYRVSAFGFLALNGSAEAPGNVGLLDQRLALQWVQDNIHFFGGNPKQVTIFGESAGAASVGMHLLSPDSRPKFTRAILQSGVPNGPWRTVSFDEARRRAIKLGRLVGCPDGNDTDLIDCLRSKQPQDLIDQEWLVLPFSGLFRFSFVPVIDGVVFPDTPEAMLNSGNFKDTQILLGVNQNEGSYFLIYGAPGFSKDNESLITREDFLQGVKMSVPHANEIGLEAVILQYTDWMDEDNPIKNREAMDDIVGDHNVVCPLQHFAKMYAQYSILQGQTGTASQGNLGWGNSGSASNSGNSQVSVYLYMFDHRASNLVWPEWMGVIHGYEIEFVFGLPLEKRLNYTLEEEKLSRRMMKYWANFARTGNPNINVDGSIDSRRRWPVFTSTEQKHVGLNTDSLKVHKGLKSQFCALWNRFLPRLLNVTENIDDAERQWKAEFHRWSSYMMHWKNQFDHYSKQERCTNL

As usually defined, the IC50 is the concentration that gives 50% inhibition. For `CCOC(=O)C1=C(C)Oc2nc3c(c(N)c2C1c1ccncc1)CCCC3` (centres undefined), on Acetylcholinesterase [1], the IC50 stood at 3000 nM.
In the case of `CCOC(=O)c1c(C)nc2nc3c(c(N)c2c1-c1ccccc1)CCCC3`, the IC50 at Acetylcholinesterase [1] worked out at 820 nM.
At Acetylcholinesterase [1], `CCOC(=O)c1c(C)nc2nc3c(c(N)c2c1-c1ccncc1)CCCC3` showed a concentration for half-maximal inhibition (IC50) of 1400 nM.
Molecule `CCOC(=O)C1=C(C)Oc2nc3c(c(N)c2C1c1ccc(OC)cc1)CCCC3` (centres undefined) gave a half-inhibitory concentration (IC50) against Acetylcholinesterase [1] of 870 nM.
As usually defined, the Ki is a dissociation constant, usually derived from enzyme kinetics or from competition with a known ligand. For the molecule `CC1(C)CC(=O)C2=C(C1)Nc1nc3c(c(N)c1C2c1ccc(F)cc1)CCCC3` (centres undefined), the IC50 is above 100000 nM at Cholinesterase, 1600 nM against Acetylcholinesterase [3] and 540 nM against Acetylcholinesterase [1]. Besides, the inhibition at 0.3 µM in the assay on SH-SY5Y [2] is 32.9%. Besides, on Acetylcholinesterase [4], the Ki amounted to 106 nM. Moreover, in the assay with SH-SY5Y [5], the Activity is 95.7%.
As for `COc1ccc(C2C3=C(CC(C)(C)CC3=O)Nc3nc4c(c(N)c32)CCCC4)cc1` (centres undefined), the IC50 is above 100000 nM on Cholinesterase, 370 nM on Acetylcholinesterase [3] and 220 nM against Acetylcholinesterase [1]. Further, in the assay on SH-SY5Y [2], the inhibition at 0.3 µM was 31%. For the same molecule, at Acetylcholinesterase [4], the Ki is 41.9 nM. The Activity in the assay on SH-SY5Y [5] worked out at 87.8%.
`CC1(C)CC(=O)C2=C(C1)Nc1nc3c(c(N)c1C2c1ccncc1)CCCC3` (centres undefined): the half-inhibitory concentration (IC50) was above 100000 nM against Cholinesterase, 2800 nM against Acetylcholinesterase [3] and 600 nM at Acetylcholinesterase [1]. Further, in the assay on SH-SY5Y [2], the inhibition at 0.3 µM is 45.1%. On Acetylcholinesterase [4], this molecule returned a Ki of 157 nM. Further, in the assay with SH-SY5Y [5], the Activity is given as 82.9%.
In the case of `CC1(C)CC(=O)C2=C(C1)Oc1nc3c(c(N)c1C2c1ccccc1)CCCC3` (centres undefined), the IC50 on Acetylcholinesterase [1] came to 49000 nM.
`Cc1ccc(C2C3=C(CC(C)(C)CC3=O)Oc3nc4c(c(N)c32)CCCC4)cc1` (centres undefined) gave a half-inhibitory concentration (IC50) on Acetylcholinesterase [1] of 52000 nM.
For the molecule `CC1(C)CC(=O)C2=C(C1)Nc1nc3c(c(N)c1C2c1ccccc1)CCCC3` (centres undefined), the half-maximal inhibitory concentration (IC50) against Cholinesterase was above 100000 nM; against Acetylcholinesterase [3], 710 nM; at Acetylcholinesterase [1] it was 320 nM. Also, in the assay on SH-SY5Y [2], the inhibition at 0.3 µM turned out to be 24.6%. On Acetylcholinesterase [4], this molecule yielded a Ki of 61.3 nM. Further, the Activity with SH-SY5Y [5] is recorded as 87.9%.
As for `Cc1ccc(C2C3=C(CC(C)(C)CC3=O)Nc3nc4c(c(N)c32)CCCC4)cc1` (centres undefined), the IC50 was above 100000 nM at Cholinesterase, 670 nM at Acetylcholinesterase [3] and 230 nM against Acetylcholinesterase [1]. Moreover, in the assay with SH-SY5Y [2], the inhibition at 0.3 µM was 30.9%. The molecule also registered an inhibition constant Ki at Acetylcholinesterase [4] of 38.9 nM. The Activity with SH-SY5Y [5] worked out at 79.9%.
The molecule `CC1(C)CC(=O)C2=C(C1)Oc1nc3c(c(N)c1C2c1ccc(F)cc1)CCCC3` (centres undefined) came in with a 50% inhibitory concentration (IC50) against Acetylcholinesterase [1] of 70000 nM.
`COc1ccc(C2C3=C(CC(C)(C)CC3=O)Oc3nc4c(c(N)c32)CCCC4)cc1` (centres undefined) gave a concentration for half-maximal inhibition (IC50) against Acetylcholinesterase [1] of 4100 nM.
`CC[N+](C)(CC)CCC[n+]1c(-c2ccccc2)c2cc(N)ccc2c2ccc(N)cc21` [PROPIDIUM] registered an inhibitory constant (Ki) on Acetylcholinesterase [4] of 6800 nM.
